Test results taken from patent publication US11371055B2, “Herbicide resistance genes” (CORTEVA AGRISCIENCE LLC, priority 2005, dated 2022).

Experiments:
[1] = test system: AAD-12 (v1) gene T1 transformants (Arabidopsis); test: T1 Arabidopsis postemergence herbicide dose response, % visual injury; assay type: in vivo, Arabidopsis thaliana
Procedure: Freshly harvested T1 seed [AAD-12 (v1) gene] was allowed to dry for 7 days at room temperature. T1 seed was sown in 26.5×51-cm germination trays (T.O. Plastics Inc., Clearwater, Minn.), each receiving a 200 mg aliquots of stratified T, seed (˜10,000 seed) that had previously been suspended in 40 ml of 0.1% agarose solution and stored at 4° C. for 2 days to complete dormancy requirements and ensure synchronous seed germination.
Sunshine Mix LP5 (Sun Gro Horticulture Inc., Bellevue, Wash.) was covered with fine vermiculite and subirrigated with Hoagland's solution until wet, then allowed to gravity drain. Each 40 ml aliquot of stratified seed was sown evenly onto the vermiculite with a pipette and covered with humidity domes (KORD Products, Bramalea. Ontario, Canada) for 4-5 days. Domes were removed 1 day prior to initial transformant selection using glufosinate postemergence spray (selecting for the co-transformed PAT gene).
(§1) Seven days after planting (DAP) and again 11 DAP, T1 plants (cotyledon and 2-4-lf stage, respectively) were sprayed with a 0.2% solution of Liberty herbicide (200 g ai/L glufosinate, Bayer Crop Sciences, Kansas City, Mo.) at a spray volume of 10 ml/tray (703 L/ha) using a DeVilbiss compressed air spray tip to deliver an effective rate of 280 g ai/ha glufosinate per application. Survivors (plants actively growing) were identified 4-7 days after the final spraying and transplanted individually into 3-inch pots prepared with potting media (Metro Mix 360). Transplanted plants were covered with humidity domes for 3-4 days and placed in a 22° C. growth chamber as before or moved to directly to the greenhouse. Domes were subsequently removed and plants reared in the greenhouse (22±5° C., 50±30% RH, 14 h light:10 dark, minimum 500 μE/m^2 s^1 natural+supplemental light) at least 1 day prior to testing for the ability of AAD-12 (v1) (plant optimized gene) to provide phenoxy auxin herbicide resistance.
(§2) T1 plants were then randomly assigned to various rates of 2,4-D. For Arabidopsis, 50 g ae/ha 2,4-D is an effective dose to distinguish sensitive plants from ones with meaningful levels of resistance. Elevated rates were also applied to determine relative levels of resistance (50, 200, 800, or 3200 g ac/ha). Tables 10 and 11 show comparisons drawn to an aryloxyalkanoate herbicide resistance gene (AAD-1 (v3)) previously described in PCT/US2005/014737.
(§3) All auxin herbicide applications were made using the DeVilbiss sprayer as described above to apply 703 L/ha spray volume (0.4 ml solution/3-inch pot) or applied by track sprayer in a 187 L/ha spray volume. 2,4-D used was either technical grade (Sigma, St. Louis, Mo.) dissolved in DMSO and diluted in water (<1% DMSO final concentration) or the commercial dimethylamine salt formulation (456 g ac/L, NuFarm, St Joseph, Mo.). Dichlorprop used was commercial grade formulated as potassium salt of R-dichlorprop (600 g ai/L, AH Marks). As herbicide rates increased beyond 800 g ae/ha, the pH of the spray solution became exceedingly acidic, burning the leaves of young, tender Arabidopsis plants and complicating evaluation of the primary effects of the herbicides. It became standard practice to apply these high rates of herbicides in 200 mM HEPES buffer, pH 7.5.
The first Arabidopsis transformations were conducted using AAD-12 (v1) (plant optimized gene). T1 transformants were first selected from the background of untransformed seed using a glufosinate selection scheme. Over 300,000 T1 seed were screened and 316 glufosinate resistant plants were identified (PAT gene), equating to a transformation/selection frequency of 0.10% which lies in the normal range of selection frequency of constructs where PAT+Liberty are used for selection. T1 plants selected above were subsequently transplanted to individual pots and sprayed with various rates of commercial aryloxyalkanoate herbicides. […]

[2] = test system: PAT/Cry1F-transformed Arabidopsis (auxin-sensitive transformed control); test: T1 Arabidopsis postemergence herbicide dose response, transformed control; assay type: in vivo, Arabidopsis thaliana
Procedure: as §1, §2, §3
The first Arabidopsis transformations were conducted using AAD-12 (v1) (plant optimized gene). T1 transformants were first selected from the background of untransformed seed using a glufosinate selection scheme. Over 300,000 T1 seed were screened and 316 glufosinate resistant plants were identified (PAT gene), equating to a transformation/selection frequency of 0.10% which lies in the normal range of selection frequency of constructs where PAT+Liberty are used for selection. T1 plants selected above were subsequently transplanted to individual pots and sprayed with various rates of commercial aryloxyalkanoate herbicides. Table 11 compares the response of AAD-12 (v1) and control genes to impart 2,4-D resistance to Arabidopsis T1 transformants. Response is presented in terms of % visual injury 2 WAT. […] Since each T1 is an independent transformation event, one can expect significant variation of individual T1 responses within a given rate. An arithmetic mean and standard deviation is presented for each treatment. The range in individual response is also indicated in the last column for each rate and transformation. PAT/Cry1F-transformed Arabidopsis served as an auxin-sensitive transformed control. The AAD-12 (v1) gene imparted herbicide resistance to individual T1 Arabidopsis plants. Within a given treatment, the level of plant response varied greatly and can be attributed to the fact each plant represents an independent transformation event. Of important note, at each 2,4-D rate tested, there were individuals that were unaffected while some were severely affected. […]

[3] = 50 g ae/ha 2,4-D postemergence, 2 WAT
[4] = 200 g ae/ha 2,4-D postemergence, 2 WAT
[5] = 800 g ae/ha 2,4-D postemergence, 2 WAT
[6] = 3200 g ae/ha 2,4-D postemergence, 2 WAT
[7] = 50 g ae/ha R-dichlorprop postemergence
[8] = 200 g ae/ha R-dichlorprop postemergence
[9] = 800 g ae/ha R-dichlorprop postemergence
[10] = 3200 g ae/ha R-dichlorprop postemergence

What does the source list for O=C(O)COc1ccc(Cl)cc1Cl [2,4-D, 2,4-dichlorophenoxyacetic acid]?
% Injury 20-40% (number of individuals) [1, 3]: 0; % Injury <20% (number of individuals) [1, 3]: 6; % Injury >40% (number of individuals) [1, 3]: 2; % Injury Ave [1, 3]: 16%; % Injury 20-40% (number of individuals) [1, 4]: 1; % Injury <20% (number of individuals) [1, 4]: 6; % Injury >40% (number of individuals) [1, 4]: 1; % Injury Ave [1, 4]: 11%; % Injury 20-40% (number of individuals) [1, 5]: 2; % Injury <20% (number of individuals) [1, 5]: 5; % Injury >40% (number of individuals) [1, 5]: 1; % Injury Ave [1, 5]: 15%; % Injury 20-40% (number of individuals) [1, 6]: 0; % Injury <20% (number of individuals) [1, 6]: 8; % Injury >40% (number of individuals) [1, 6]: 0; % Injury 20-40% (number of individuals) [2, 3]: 1; % Injury <20% (number of individuals) [2, 3]: 4; % Injury >40% (number of individuals) [2, 3]: 5; % Injury Ave [2, 3]: 31%; % Injury 20-40% (number of individuals) [2, 4]: 0; % Injury <20% (number of individuals) [2, 4]: 0; % Injury >40% (number of individuals) [2, 4]: 10; % Injury Ave [2, 4]: 70%; % Injury 20-40% (number of individuals) [2, 5]: 0; % Injury <20% (number of individuals) [2, 5]: 0; % Injury >40% (number of individuals) [2, 5]: 10; % Injury Ave [2, 5]: 81%; % Injury 20-40% (number of individuals) [2, 6]: 0; % Injury <20% (number of individuals) [2, 6]: 0; % Injury >40% (number of individuals) [2, 6]: 10; % Injury Ave [2, 6]: 91%

For C[C@@H](Oc1ccc(Cl)cc1Cl)C(=O)O [(R)-dichlorprop, R-2,4-dichlorophenoxypropionic acid], which “% Injury 20-40% (number of individuals)” value [1, 7] is on record?
The value was 0.

What about the “% Injury <20% (number of individuals)” value [1, 7] of the same molecule?
The value was 0.

And the “% Injury >40% (number of individuals)” value [1, 7]?
The value was 8.

And the “% Injury Ave” value [1, 7]?
Its value is 63%.

What about the “% Injury 20-40% (number of individuals)” value [1, 8] of the same molecule?
Its value is 0.

And the “% Injury <20% (number of individuals)” value [1, 8]?
Its value is 0.

What about the “% Injury >40% (number of individuals)” value [1, 8] of the same molecule?
Its value is 8.

What about the “% Injury Ave” value [1, 8] of the same molecule?
The value was 85%.

And the “% Injury 20-40% (number of individuals)” value [1, 9]?
The value was 0.

What about the “% Injury <20% (number of individuals)” value [1, 9] of the same molecule?
The value was 0.

And the “% Injury >40% (number of individuals)” value [1, 9]?
Its value is 8.

What about the “% Injury Ave” value [1, 9] of the same molecule?
The value was 96%.

What about the “% Injury 20-40% (number of individuals)” value [1, 10] of the same molecule?
The value was 0.

And the “% Injury <20% (number of individuals)” value [1, 10]?
Its value is 0.

What about the “% Injury >40% (number of individuals)” value [1, 10] of the same molecule?
The value was 8.

What about the “% Injury Ave” value [1, 10] of the same molecule?
Its value is 98%.

What about the “% Injury 20-40% (number of individuals)” value [2, 7] of the same molecule?
Its value is 10.

And the “% Injury <20% (number of individuals)” value [2, 7]?
Its value is 0.

What about the “% Injury >40% (number of individuals)” value [2, 7] of the same molecule?
The value was 0.

What about the “% Injury Ave” value [2, 7] of the same molecule?
Its value is 27%.

And the “% Injury 20-40% (number of individuals)” value [2, 8]?
Its value is 0.

What about the “% Injury <20% (number of individuals)” value [2, 8] of the same molecule?
The value was 0.

And the “% Injury >40% (number of individuals)” value [2, 8]?
The value was 10.

And the “% Injury Ave” value [2, 8]?
Its value is 69%.

And the “% Injury 20-40% (number of individuals)” value [2, 9]?
The value was 0.

And the “% Injury <20% (number of individuals)” value [2, 9]?
Its value is 0.

What about the “% Injury >40% (number of individuals)” value [2, 9] of the same molecule?
Its value is 10.

And the “% Injury Ave” value [2, 9]?
The value was 83%.

And the “% Injury 20-40% (number of individuals)” value [2, 10]?
The value was 0.

What about the “% Injury <20% (number of individuals)” value [2, 10] of the same molecule?
Its value is 0.

What about the “% Injury >40% (number of individuals)” value [2, 10] of the same molecule?
Its value is 10.

What about the “% Injury Ave” value [2, 10] of the same molecule?
The value was 90%.
